According to ChEMBL document CHEMBL1144564, “Discovery of Helicobacter pylori shikimate kinase inhibitors: bioassay and molecular modeling” (Bioorg Med Chem, 2007):

Legend:
Shikimate kinase [1] = target: T1, Shikimate kinase (Helicobacter pylori (strain ATCC 700392 / 26695) (Campylobacterpylori), UniProt P56073); assay: Inhibition of Helicobacter pylori SS1 recombinant shikimate kinase expressed in BL21 (DE3) cells by double coupled assay; assay type: cell-based
Shikimate kinase [2] = target: T1, Shikimate kinase; assay: Inhibition of Helicobacter pylori SS1 recombinant shikimate kinase expressed in BL21 (DE3) cells in presence of varying MgATP levels by double coupled assay; assay type: cell-based
Shikimate kinase [3] = target: T1, Shikimate kinase; assay: Inhibition of Helicobacter pylori SS1 recombinant shikimate kinase expressed in BL21 (DE3) cells in presence of varying shikimate levels by double coupled assay; assay type: cell-based
Shikimate kinase [4] = target: T1, Shikimate kinase; assay: Binding affinity to Helicobacter pylori SS1 recombinant shikimate kinase expressed in BL21 (DE3) cells by SPR assay

T1 sequence (P56073 whole entry): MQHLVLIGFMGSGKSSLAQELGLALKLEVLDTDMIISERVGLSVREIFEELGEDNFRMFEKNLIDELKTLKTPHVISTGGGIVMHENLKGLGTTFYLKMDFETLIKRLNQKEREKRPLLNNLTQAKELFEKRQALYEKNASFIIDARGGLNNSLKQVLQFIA

IC50 (Shikimate kinase [1]) [µM]	Ki (Shikimate kinase [1]) [µM]	Ki (Shikimate kinase [2]) [µM]	Ki (Shikimate kinase [3]) [µM]	Kd (Shikimate kinase [4]) [µM]	SMILES
5.5	9.48	7.18	10.7	4.39	COc1cc(C=O)ccc1OCc1ccccc1COc1ccc(/C=C2/SC(=S)NC2=O)cc1OC
6.4	2.19	7.92		3.74	O=C1NN(c2ccc(Cl)c(Cl)c2)C(=O)/C1=C\c1ccc(-c2ccc(Br)cc2C(=O)O)o1
